Source: patent publication US6379697B1, “Stabilization of photosensitive materials” (The Secretary of State for Defence in Her Britannic …, priority 1994, dated 2002)
Where two headings read alike, the source gives them in different places.

Test: Photodegradation of riboflavin preparations under UV irradiation (254/365 nm), first order kinetics
Format: physicochemical
Conditions: for half-life: aqueous solution of free riboflavin under UV irradiation
Protocol: At time intervals a known amount of the solution or suspension was diluted with double distilled water and the absorbance or fluorescence measured.
In the case of the liposome suspensions liposomal pellets were produced, solubilised with a 10% solution of Triton-X-100 (RTM) and then diluted and measured. The entrapment and degradation of riboflavin was calculated from the absorbance readings at 444 nm, absorbance at this wavelength not interfering with the absorbance of Triton-X-100.
The photodegradation of riboflavin caused by UV irradiation follows first order kinetics and is given by the following equation: […]
where C0 is the initial concentration of riboflavin, C is the concentration of riboflavin after t min of irradiation and k is the first order photodegradation rate constant.
The graphic representation of Equation (2) is linear and the slope of the line gives the photodegradation rate constant k.
The increase in stability was expressed by the stabilization ratio. (k0/k), where k0 is the photodegradation constant of free riboflavin in aqueous solution and k the photodegradation rate constant of the various preparations.
Riboflavin gamma-cyclodextrin inclusion complexes were entrapped in DRV incorporating a light absorbing agent or antioxidant in their lipid phase selected from: oil Red 0, oxybenzone, deoxybenzone and beta-carotene or combinations thereof. […] As in the previous examples this degradation followed first order kinetics represented by the equations given earlier.
In order to determine the extent of this reduction and to determine whether during the photodegradation of riboflavin the same concentration of oil Red 0 caused different reductions in fluorescence, solutions containing known amounts of riboflavin and oil Red 0 solubilised in water using Triton-X-100 were prepared and their fluorescence measured.

Cc1cc2nc3c(=O)[nH]c(=O)nc-3n(C[C@H](O)[C@H](O)[C@H](O)CO)c2cc1C [Riboflavin, riboflavin]
half-life (aqueous solution, irradiation, read-out: half life of riboflavin in aqueous solution on irradiation): ~30 min | half-life (free riboflavin, UV irradiation, read-out: half life of riboflavin): 30 min | rate of decomposition of riboflavin in aqueous solution on irradiation (aqueous solution, irradiation): 0.024 min⁻¹ | k × 10^3, rate constant for the photodegradation of riboflavin (values are k × 10^3, UV lamp 254/365 nm, 3 cm, 24° C.): 24(k °) min^−1
